Test system: 521955-158-R6-J3-PDC complex spheroid growth, % test/control
Assay: Anticancer human tumor 521955-158-R6-J3-PDC patient-derived pancreatic carcinoma cell line growth inhibition [Asc]
Settings: for IC50: curve of first compound; for viability, T/C: stronger effect = lower value; active means viability on the fitted dose curve at most 10% of control; inactive means the rest
Procedure, shortened: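 Stromal components (HUVEC and hMSC) are co-assembled with the cancer cells into multicellular spheroids. Drugs are then added singly or paired, at concentrations falling by half-log increments from a clinically achievable maximum, capped at 10 microM without known Cmax.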

[1] = second compound 0.0316 µM, first compound 0.0316 µM
[2] = second compound 0.0316 µM, first compound 0.1 µM
[3] = second compound 0.0316 µM, first compound 0.316 µM
[4] = second compound 0.0316 µM, first compound 1 µM
[5] = second compound 0.1 µM, first compound 0.0316 µM
[6] = second compound 0.1 µM, first compound 0.1 µM
[7] = second compound 0.1 µM, first compound 0.316 µM
[8] = second compound 0.1 µM, first compound 1 µM
[9] = second compound 0.316 µM, first compound 0.0316 µM
[10] = second compound 0.316 µM, first compound 0.1 µM
[11] = second compound 0.316 µM, first compound 0.316 µM
[12] = second compound 0.316 µM, first compound 1 µM
[13] = second compound 1 µM, first compound 0.0316 µM
[14] = second compound 1 µM, first compound 0.1 µM
[15] = second compound 1 µM, first compound 0.316 µM
[16] = second compound 1 µM, first compound 1 µM
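Further: spheroids exposed to compounds for 7 days.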
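Wherever viability, T/C is given: 100% = DMSO vehicle control wells.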

C=C(F)C(=O)N1CCN(c2nc(OCC3CCCN3C)nc3c2CCN(c2cccc4cccc(Cl)c24)C3)CC1CC#N (centres undefined) + CNC(C)C(=O)NC1CN(S(=O)(=O)c2cccc(S(=O)(=O)N3CCC4CCC(C(=O)NC(c5ccccc5)c5ccccc5)N4C(=O)C(NC(=O)C(C)NC)C3)c2)CCC2CCC(C(=O)NC(c3ccccc3)c3ccccc3)N2C1=O
4.74 µM: IC50 (second compound 0.00316 µM)
3.84 µM: IC50 (second compound 0.316 µM)
3.46 µM: IC50 (second compound 1 µM)
active: viability, T/C (second compound 0.00316 µM, first compound 10 µM) 0.24% | viability, T/C (second compound 0.01 µM, first compound 10 µM) 0.28% | viability, T/C (second compound 0.0316 µM, first compound 10 µM) 0.21% | viability, T/C (second compound 0.1 µM, first compound 10 µM) 0.28% | viability, T/C (second compound 0.316 µM, first compound 10 µM) 0.26% | viability, T/C (second compound 1 µM, first compound 10 µM) 0.32%
4.13 µM: IC50 (second compound 0.01 µM) | IC50 (second compound 0.1 µM)
inactive: viability, T/C (second compound 0.00316 µM, first compound 0.0316 µM) 92.6% | viability, T/C (second compound 0.00316 µM, first compound 0.1 µM) 88.5% | viability, T/C (second compound 0.00316 µM, first compound 0.316 µM) 81.2% | viability, T/C (second compound 0.00316 µM, first compound 1 µM) 77.6% | viability, T/C (second compound 0.00316 µM, first compound 3.16 µM) 76.8% | viability, T/C (second compound 0.01 µM, first compound 0.0316 µM) 87.4% | viability, T/C (second compound 0.01 µM, first compound 0.1 µM) 83% | viability, T/C (second compound 0.01 µM, first compound 0.316 µM) 80.5% | viability, T/C (second compound 0.01 µM, first compound 1 µM) 66.9% | viability, T/C (second compound 0.01 µM, first compound 3.16 µM) 69.4% | viability, T/C [1] 95.6% | viability, T/C [2] 98.2% | viability, T/C [3] 73.7% | viability, T/C [4] 71.2% | viability, T/C (second compound 0.0316 µM, first compound 3.16 µM) 70.2% | viability, T/C [5] 84.9% | viability, T/C [6] 74.2% | viability, T/C [7] 76.4% | viability, T/C [8] 69.7% | viability, T/C (second compound 0.1 µM, first compound 3.16 µM) 66.7% | viability, T/C [9] 79.6% | viability, T/C [10] 80.6% | viability, T/C [11] 77.1% | viability, T/C [12] 68.8% | viability, T/C (second compound 0.316 µM, first compound 3.16 µM) 62.5% | viability, T/C [13] 70.8% | viability, T/C [14] 77.2% | viability, T/C [15] 80.2% | viability, T/C [16] 71.5% | viability, T/C (second compound 1 µM, first compound 3.16 µM) 54.4%
3.96 µM: IC50 (second compound 0.0316 µM)

CCN1CCN(Cc2ccc(Nc3ncc(F)c(-c4cc(F)c5nc(C)n(C(C)C)c5c4)n3)nc2)CC1 + Cc1c(S(C)(=O)=O)c(-c2cc(F)cc(N3CCN(c4ccc(NS(=O)(=O)c5ccc(NC(CCN6CCC(C(=O)OCCCP(=O)(O)O)CC6)CSc6ccccc6)c(S(=O)(=O)C(F)(F)F)c5)cc4)CC3)c2)c(-c2ccc(Cl)cc2)n1C(C)C
> 1 µM: IC50 (second compound 0.0316 µM) | IC50 (second compound 0.1 µM)
inactive: viability, T/C (second compound 0.0316 µM, first compound 0.00316 µM) 96.2% | viability, T/C (second compound 0.0316 µM, first compound 0.01 µM) 81% | viability, T/C [1] 73.6% | viability, T/C [2] 71.9% | viability, T/C [3] 67.6% | viability, T/C [4] 84.4% | viability, T/C (second compound 0.1 µM, first compound 0.00316 µM) 72.3% | viability, T/C (second compound 0.1 µM, first compound 0.01 µM) 57.5% | viability, T/C [5] 62% | viability, T/C [6] 63.1% | viability, T/C [7] 82.1% | viability, T/C [8] 73.5% | viability, T/C (second compound 0.316 µM, first compound 0.00316 µM) 53% | viability, T/C (second compound 0.316 µM, first compound 0.01 µM) 49% | viability, T/C [9] 43.9% | viability, T/C [10] 53.6% | viability, T/C [11] 49.4% | viability, T/C [12] 53.9% | viability, T/C (second compound 1 µM, first compound 0.00316 µM) 35.6% | viability, T/C (second compound 1 µM, first compound 0.01 µM) 39.1% | viability, T/C [13] 29.4% | viability, T/C [14] 37.3% | viability, T/C [15] 34.2% | viability, T/C [16] 41.1% | viability, T/C (second compound 3.16 µM, first compound 0.00316 µM) 21.4% | viability, T/C (second compound 3.16 µM, first compound 0.01 µM) 18.7% | viability, T/C (second compound 3.16 µM, first compound 0.0316 µM) 18.4% | viability, T/C (second compound 3.16 µM, first compound 0.1 µM) 19.4% | viability, T/C (second compound 3.16 µM, first compound 0.316 µM) 24.2% | viability, T/C (second compound 3.16 µM, first compound 1 µM) 26.1% | viability, T/C (second compound 10 µM, first compound 0.00316 µM) 30.4% | viability, T/C (second compound 10 µM, first compound 0.01 µM) 16.3% | viability, T/C (second compound 10 µM, first compound 0.0316 µM) 15% | viability, T/C (second compound 10 µM, first compound 0.1 µM) 15.2% | viability, T/C (second compound 10 µM, first compound 0.316 µM) 26.6% | viability, T/C (second compound 10 µM, first compound 1 µM) 28.9%
< 0.00316 µM: IC50 (second compound 0.316 µM) | IC50 (second compound 1 µM) | IC50 (second compound 3.16 µM) | IC50 (second compound 10 µM)
